According to patent US8003796B2, “Pyridone GPR119 G protein-coupled receptor agonists” (Bristol-Myers Squibb Company, priority 2007, dated 2011):
Where a name gives a salt, the structure may show the parent alone.

Target: T1, human GPR119 (Homo sapiens, UniProt Q8TDV5)
T1 construct: expressed in transfected cells; host or cells: Flp-In-T-REx 293 (tetracycline-inducible)
T1 sequence (Q8TDV5 1-335): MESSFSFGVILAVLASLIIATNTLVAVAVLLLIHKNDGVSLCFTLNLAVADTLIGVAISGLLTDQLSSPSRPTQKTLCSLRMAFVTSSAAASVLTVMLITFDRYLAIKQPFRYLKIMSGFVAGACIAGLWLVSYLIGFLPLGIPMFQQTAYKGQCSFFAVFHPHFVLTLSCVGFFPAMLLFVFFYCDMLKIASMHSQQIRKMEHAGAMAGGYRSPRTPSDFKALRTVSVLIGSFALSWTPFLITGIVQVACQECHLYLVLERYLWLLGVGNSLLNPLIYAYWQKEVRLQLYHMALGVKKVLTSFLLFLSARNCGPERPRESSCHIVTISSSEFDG
Assay: Human Tet-inducible cAMP assay
Format: cell-based
Conditions: Flp-In-T-REx 293 tetracycline inducible cells expressing GPR119; cAMP by Hit Hunter cAMP kit; 1 hour at 37° C.; read-out: hGPR119 EC50
Description: The in vitro modulation of recombinant human GPR119 was determined as follows.
Human Tet-Inducible cAMP Assay
Cell lines expressing GPR119 are generated using the Flp-In-T-REx 293 tetracycline inducible gene expression system are cultured in culture medium comprising the following components: DMEM#11965, 10% FBS, 2 mM L-glutamine, 200 ug/ml Hygromycin B, and 15 ug/ml blasticidin.
For cAMP assays, cells are plated on 96 well plates (e.g., BD Falcon: REF 353948, black side, clear bottom, TC surface) at a density of about 4.5×10^4 cells per well in growth medium containing 1.0 ug/ml tetracycline (1.0 mg/ml stock). The cells are then incubated for 48 hours at 37° C.
Following the incubation, the growth medium is removed from the wells and the wells rinsed (once) with the assay buffer included in the Hit Hunter cAMP kit (100 μl/well). Following the wash, 20 μl of assay buffer is added to each well, followed by addition of 10 μl of a 3× concentration compound working solution. The solution is then mixed. The final concentration range of compound is from about 10^−5M to about 10^−11M. The reagents are then incubated at 37° C. at 5% CO2 for 1 hour.
The manufacturer's protocol may be followed for cAMP determination. The Hit Hunter cAMP kit protocol is outlined for the HIT-T15 cAMP assays described above.
Compounds of the present invention were tested in the Human Tet-inducible cAMP assay described immediately above and the results shown in Table 1 below were obtained.

| SMILES | EC50 |
| --- | --- |
| COc1cccc(-n2ccc(OC3CCN(C(=O)OC(C)C)CC3)cc2=O)c1 [Example 12, isopropyl 4-(1-(3-methoxyphenyl)-2-oxo-1,2-dihydropyridin-4-yloxy)piperidine-1-carboxylate] | 3490 nM |
| CC(C)OC(=O)N1[C@@H]2CC[C@@H]1CC(Oc1ccn(-c3ccc(S(C)(=O)=O)cc3)c(=O)c1)C2 (stereo partly drawn) [Example 27, (3-endo)-isopropyl 3-(1-(4-(methylsulfonyl)phenyl)-2-oxo-1,2-dihydropyridin-4-yloxy)-8-azabicyclo[3.2.1]octane-8-carboxylate] | 3500 nM |
| CS(=O)(=O)c1ccc(-n2ccc(OC3CCN(c4nc5ccccc5o4)CC3)cc2=O)cc1 [Example 51, 4-(1-(benzo[d]oxazol-2-yl)piperidin-4-yloxy)-1-(4-(methylsulfonyl)phenyl)pyridin-2(1H)-one] | 314 nM |
| CS(=O)(=O)c1ccc(-n2ccc(OC3CCN(C(=O)CCc4ccccc4)CC3)cc2=O)cc1 [Example 74, 1-(4-(methylsulfonyl)phenyl)-4-(1-(3-phenylpropanoyl)piperidin-4-yloxy)pyridin-2(1H)-one] | 275 nM |
| CS(=O)(=O)c1ccc(-n2ccc(OC3CCN(C(=O)c4cnc5ccccc5n4)CC3)cc2=O)cc1 [Example 78, 1-(4-(methylsulfonyl)phenyl)-4-(1-(quinoxaline-2-carbonyl)piperidin-4-yloxy)pyridin-2(1H)-one] | 303 nM |
| CS(=O)(=O)c1ccc(-n2ccc(OC3CCN(S(=O)(=O)CC(F)(F)F)CC3)cc2=O)cc1 [Example 82, 1-(4-(methylsulfonyl)phenyl)-4-(1-(2,2,2-trifluoroethylsulfonyl)piperidin-4-yloxy)pyridin-2(1H)-one] | 4030 nM |
| CS(=O)(=O)c1ccc(-n2ccc(OC3CCN(S(C)(=O)=O)CC3)cc2=O)cc1 [Example 83, 1-(4-(methylsulfonyl)phenyl)-4-(1-(methylsulfonyl)piperidin-4-yloxy)pyridin-2(1H)-one] | 4340 nM |
| CS(=O)(=O)c1ccc(-n2ccc(OC3CCN(S(=O)(=O)C4CC4)CC3)cc2=O)cc1 [Example 84, 4-(1-(cyclopropylsulfonyl)piperidin-4-yloxy)-1-(4-(methylsulfonyl)phenyl)pyridin-2(1H)-one] | 3270 nM |
| CS(=O)(=O)c1ccc(-n2ccc(OC3CCN(S(=O)(=O)c4ccccn4)CC3)cc2=O)cc1 [Example 86, 1-(4-(methylsulfonyl)phenyl)-4-(1-(pyridin-2-ylsulfonyl)piperidin-4-yloxy)pyridin-2(1H)-one] | 3520 nM |
| CCCOC(=O)N1CCC(Oc2ccn(-c3ccc(S(C)(=O)=O)cc3)c(=O)c2)CC1 [Example 91, propyl 4-(1-(4-(methylsulfonyl)phenyl)-2-oxo-1,2-dihydropyridin-4-yloxy)piperidine-1-carboxylate] | 304 nM |
| Cc1cnc(N2CCC(Oc3ccn(-c4ccc(S(C)(=O)=O)cc4)c(=O)c3)CC2)nc1 [Example 108, 4-(1-(5-methylpyrimidin-2-yl)piperidin-4-yloxy)-1-(4-(methylsulfonyl)phenyl)pyridin-2(1H)-one] | 261 nM |
| CCOc1ccc(OC(=O)N2CCC(Oc3ccn(-c4ccc(S(C)(=O)=O)cc4)c(=O)c3)CC2)cc1 [Example 125, 4-ethoxyphenyl 4-(1-(4-(methylsulfonyl)phenyl)-2-oxo-1,2-dihydropyridin-4-yloxy)piperidine-1-carboxylate] | 293 nM |
| CCc1cnc(N2CCC(Oc3ccn(-c4cccnc4)c(=O)c3)CC2)nc1 [Example 133, 4-(1-(5-ethylpyrimidin-2-yl)piperidin-4-yloxy)-1-(pyridin-3-yl)pyridin-2(1H)-one] | 250 nM |
| Cc1cc(Br)ccc1OC(=O)N1CCC(Oc2ccn(-c3ccc(S(C)(=O)=O)cc3)c(=O)c2)CC1 [Example 143, 4-bromo-2-methylphenyl 4-(1-(4-(methylsulfonyl)phenyl)-2-oxo-1,2-dihydropyridin-4-yloxy)piperidine-1-carboxylate] | 274 nM |
| CCCc1ccc(OC(=O)N2CCC(Oc3ccn(-c4ccc(S(C)(=O)=O)cc4)c(=O)c3)CC2)cn1 [Example 153, 6-propylpyridin-3-yl 4-(1-(4-(methylsulfonyl)phenyl)-2-oxo-1,2-dihydropyridin-4-yloxy)piperidine-1-carboxylate, TFA salt] | 273 nM |
| Cc1cc(OC2CCN(c3ncc(C4CC4)cn3)CC2)cc(=O)n1-c1ccc(S(C)(=O)=O)cc1 [Example 162, 4-(1-(5-cyclopropylpyrimidin-2-yl)piperidin-4-yloxy)-6-methyl-1-(4-(methylsulfonyl)phenyl)pyridin-2(1H)-one] | 5000 nM |
| CCCc1cnc(N2CCC(Oc3cc(C)n(-c4ccc(S(C)(=O)=O)cc4)c(=O)c3)CC2)nc1 [Example 165, 6-methyl-1-(4-(methylsulfonyl)phenyl)-4-(1-(5-propylpyrimidin-2-yl)piperidin-4-yloxy)pyridin-2(1H)-one] | 5000 nM |
| CCCc1cnc(N2CCC(Oc3ccn(-c4ccc(S(C)(=O)=O)c(F)c4)c(=O)c3)CC2)nc1 [Example 175, 1-(3-fluoro-4-(methylsulfonyl)phenyl)-4-(1-(5-propylpyrimidin-2-yl)piperidin-4-yloxy)pyridin-2(1H)-one] | 8 nM |
| CCCc1cnc(N2CCC(Oc3ccn(-c4ccc(C#N)cc4F)c(=O)c3)CC2)nc1 [Example 177, 3-fluoro-4-(2-oxo-4-(1-(5-propylpyrimidin-2-yl)piperidin-4-yloxy)pyridin-1(2H)-yl)benzonitrile, TFA salt] | 8 nM |
| CCCc1cnc(N2CCC(Oc3ccn(-c4ccc(S(C)(=O)=O)cc4C)c(=O)c3)CC2)nc1 [Example 178, 1-(2-methyl-4-(methylsulfonyl)phenyl)-4-(1-(5-propylpyrimidin-2-yl)piperidin-4-yloxy)pyridin-2(1H)-one] | 265 nM |
| CCCc1cnc(N2CCC(Oc3ccn(-c4ccc(C(N)=O)cc4F)c(=O)c3)CC2)nc1 [Example 179, 3-fluoro-4-(2-oxo-4-(1-(5-propylpyrimidin-2-yl)piperidin-4-yloxy)pyridin-1(2H)-yl)benzamide, TFA salt] | 276 nM |
| CC(C)OC(=O)N1CCC(Oc2ccn(-c3ccc(S(C)(=O)=O)nc3)c(=O)c2)CC1 [Example 189, isopropyl 4-(1-(6-(methylsulfonyl)pyridin-3-yl)-2-oxo-1,2-dihydropyridin-4-yloxy)piperidine-1-carboxylate] | 7140 nM |
| CC(C)OC(=O)N1CCC(Oc2ccn(-c3cncnc3)c(=O)c2)CC1 [Example 191, isopropyl 4-(2-oxo-1-(pyrimidin-5-yl)-1,2-dihydropyridin-4-yloxy)piperidine-1-carboxylate] | 5090 nM |
| CCCc1cnc(N2CCC(Oc3ccn(-c4cncnc4)c(=O)c3)CC2)nc1 [Example 192, 4-(1-(5-propylpyrimidin-2-yl)piperidin-4-yloxy)-1-(pyrimidin-5-yl)pyridin-2(1H)-one] | 241 nM |
| CCCc1cnc(N2CCC(Oc3cc(=O)n(-c4ccc(S(C)(=O)=O)cc4)cc3Cl)CC2)nc1 [Example 194, 5-chloro-1-(4-(methylsulfonyl)phenyl)-4-(1-(5-propylpyrimidin-2-yl)piperidin-4-yloxy)pyridin-2(1H)-one, TFA salt] | 5 nM |
| CCCc1cnc(N2CCC(Oc3ccn(-c4ccc(C#N)c(F)c4)c(=O)c3)CC2)nc1 [Example 199, 2-fluoro-4-(2-oxo-4-(1-(5-propylpyrimidin-2-yl)piperidin-4-yloxy)pyridin-1(2H)-yl)benzonitrile] | 7 nM |
| CCCc1cnc(N2CCC(Oc3ccn(-c4ccc(S(C)(=O)=O)nc4C)c(=O)c3)CC2)nc1 [Example 206, 1-(2-methyl-6-(methylsulfonyl)pyridin-3-yl)-4-(1-(5-propylpyrimidin-2-yl)piperidin-4-yloxy)pyridin-2(1H)-one, TFA salt] | 293 nM |
| Cc1nc(S(C)(=O)=O)ccc1-n1ccc(OC2CCN(C(=O)OC(C)C)CC2)cc1=O [Example 207, isopropyl 4-(1-(2-methyl-6-(methylsulfonyl)pyridin-3-yl)-2-oxo-1,2-dihydropyridin-4-yloxy)piperidine-1-carboxylate, TFA salt] | 7070 nM |
| CC(C)OC(=O)N1CCC(Oc2ccn(-c3ccc(NC(=O)C(C)C)cc3)c(=O)c2)CC1 [Example 209, isopropyl 4-(1-(4-isobutyramidophenyl)-2-oxo-1,2-dihydropyridin-4-yloxy)piperidine-1-carboxylate] | 3390 nM |
